In US20250288591A1, “TRIMEPRAZINE FOR USE IN TREATING TRIGEMINAL NEURALGIA AND FOR REDUCING PAIN RELATED THERETO” (UNDAUNTED BIO, INC., priority 2022, published 2025):

Legend:
[1] = test system: histamine H1-receptor; conditions: more potent than Z-triprolidine; cited from earlier work
[2] = after application of 5% lidocaine plaster to skin; cited from earlier work
[3] = target: mu-opioid receptors (Homo sapiens, UniProt P35372); conditions: relative to morphine; cited from earlier work
[4] = 100-400 mg/d; 8 patients with classic TN; cited from earlier work
[5] = 10 patients with TN; cited from earlier work
[6] = 23 patients, add-on therapy; cited from earlier work
[7] = PHN; study in Japan; cited from earlier work
[8] = Case report: patient with classic trigeminal neuralgia treated with trimeprazine; format: in vivo, human
Text: A middle-aged patient suffers from classic trigeminal neuralgia presenting with sharp, lancinating, severe pain in their left face precipitated by showering, eating, facial animation, touch of their facial skin and nose, and brushing their teeth. The episodes of pain are initiated by the stimuli above and immediately stop all other activity until they subside in several seconds. Their behavior is modified to avoid the stimuli above, even affecting how they speak and eats. […] Their daily activities are dominated by fear of inducing another attack. […] They had no remedy for these terrible pains before treatment with trimeprazine. The patient began treatment with trimeprazine 5 mg morning and evening. The second day of the course the intensity and frequency of the attacks were in decline. […] Since then, they have noted some discomfort in their face but not the sharp, almost unbearable pain of before. […] On most days they take no medication now. […] They note that this is a common side-effect for them to experience if a medication has any potential for causing drowsiness.

[9] = Observed effect of trimeprazine on pain of post-herpetic neuralgia and trigeminal neuralgia; conditions: in vivo
Text: Post-herpetic pain involves the dorsal root ganglion (DRG), and trigeminal neuralgia involves the trigeminal ganglion (TG). Both the DRG and the TG are involved in the perception of itch and pain. Chronic neuropathic pain is a hypersensitivity state that results from peripheral and central sensitization. It is increasingly appreciated that chronic itch and chronic cough are also hypersensitivity syndromes.

Sequence of mu-opioid receptors (P35372 whole entry): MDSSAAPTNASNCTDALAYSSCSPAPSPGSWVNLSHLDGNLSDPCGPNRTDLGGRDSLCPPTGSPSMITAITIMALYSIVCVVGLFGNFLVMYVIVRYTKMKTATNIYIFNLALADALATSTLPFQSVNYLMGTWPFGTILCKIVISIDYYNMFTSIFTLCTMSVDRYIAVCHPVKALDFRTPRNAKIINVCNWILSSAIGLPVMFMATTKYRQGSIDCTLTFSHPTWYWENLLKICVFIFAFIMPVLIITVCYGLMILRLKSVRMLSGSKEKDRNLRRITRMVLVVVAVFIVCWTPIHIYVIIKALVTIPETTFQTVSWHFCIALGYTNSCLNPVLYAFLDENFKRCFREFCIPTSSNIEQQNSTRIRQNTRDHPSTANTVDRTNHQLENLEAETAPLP

Cc1ccc(/C(=C\CN2CCCC2)c2ccccn2)cc1 [E-triprolidine]
potency relative to Z-triprolidine [1]: 1000 fold

CCN(CC)CC(=O)Nc1c(C)cccc1C [Lidocaine]
share of the drug that reaches the systemic circulation [2]: 3%

CC[C@@H](c1cccc(O)c1)[C@@H](C)CN(C)C [Tapentadol]
potency in binding mu-opioid receptors, times less potent than morphine [3]: 18 times

CC1(C)O[C@@H]2[C@@H](CO[C@@]3(COS(N)(=O)=O)OC(C)(C)O[C@@H]23)O1 [Topiramate]
patients in whom the drug was found effective [4]: 75%

CC[C@@H](C(N)=O)N1CCCC1=O [levetiracetam, Levetiracetam]
improvement [5]: 50-90% | reduction in number of daily attacks [6]: 62%

CC(C)C[C@H](CN)CC(=O)O [pregabalin, Pregabalin]
analgesic property relative to gabapentin [7]: 6 times

CC(CN(C)C)CN1c2ccccc2Sc2ccccc21 (stereo not drawn) [trimeprazine]
side-effects ([8]; 5 mg tablets, one patient): no side-effects other than drowsiness | pain ([8]; after four days of medication, 5 mg morning and evening): all pain was gone | residual discomfort in face ([8]; later use, ½ to 1 pill of 5 mg once or twice a day): successfully alleviated | intensity and frequency of the attacks ([8]; second day of the course, 5 mg morning and evening, one patient): in decline | effect on pain of post-herpetic neuralgia and trigeminal neuralgia [9]: observed to treat the pain
